Test results taken from US20240216369A1, “THE USE OF A SPLICING MODULATOR FOR A TREATMENT SLOWING PROGRESSION OF HUNTINGTON'S DISEASE” (Novartis AG, priority 2019, published 2024).

Test system: mutant HTT protein
Assay: Human PK/PD model scaled from BacHD mouse, simulations in adult patients
Conditions: Scaled PD parameters (cortex)
Source text: For the development of a PK/PD model in adults, the adult ACAT/PBPK model (Example 1c.1) was used to predict the concentration-time course of branaplam in plasma after oral branaplam administration. The PD parameters of the population PK/PD model in mouse were scaled for brain cortex and brain striatum from BacHD mouse to human according to following assumptions: • Mutant HTT baseline level in brain (R0) was kept equal to 1. • Drug's potency (IC50) was assumed to be the same in human as in BacHD mouse. The value was not corrected by the plasma protein binding since values in mouse and human were 0.741 and 0.8 in mouse and human, respectively. • Degradation rate or fractional turnover parameter of the mutant HTT protein synthesis (kout) was scaled from BacHD mouse to human considering an allometric scaling method based on the assumption that endogenous turnover of proteins, peptides and hormones can be scaled across different species and are related to energy turnover or metabolic rates (Gabrielsson J, Hjorth S, Quantitative Pharmacology: An Introduction to Integrative Pharmacokinetic-Pharmacodynamic Analysis. Swedish Pharmaceutical Press; 1 edition (May 7, 2012)). […]

`CC1(C)CC(Oc2ccc(-c3ccc(-c4cn[nH]c4)cc3O)nn2)CC(C)(C)N1` [Compound 18, 5-(1H-pyrazol-4-yl)-2-(6-((2,2,6,6-tetramethylpiperidin-4-yl)oxy)pyridazin-3-yl)phenol] gave an Imax (first block) of 1 and an Imax (second block) of 1.
